Test results taken from the NIST ThermoML archive (doi:10.1021/je060271a).
“And” between values parts separate entries of the source, which are not always exact repeats. Equal values may be shown once.

Conditions: Liquid, Vibrating tube method

CCCCCC(=O)OCC(COC(=O)CCCCC)(COC(=O)CCCCC)COC(=O)CCCCC [pentaerythritol tetrahexanoate]
Conditions | mass density
283.15 K, 30604 kPa | 1021 kg/m3
283.15 K, 30620 kPa | 1020.9 kg/m3
283.15 K, 30636 kPa | 1020.9 kg/m3
283.15 K, 30656 kPa | 1021.1 kg/m3
283.15 K, 30672 kPa | 1020.9 kg/m3
283.15 K, 30688 kPa | 1021 kg/m3
283.15 K, 30708 kPa | 1020.9 kg/m3
283.15 K, 30724 kPa | 1021 kg/m3
283.15 K, 30740 kPa | 1021 kg/m3
283.15 K, 30757 kPa | 1021 kg/m3
283.15 K, 30777 kPa | 1020.9 kg/m3
283.15 K, 30793 kPa | 1021.1 kg/m3
283.15 K, 30809 kPa | 1021 kg/m3
283.15 K, 30829 kPa | 1021 kg/m3
283.15 K, 30846 kPa | 1021.1 kg/m3
283.15 K, 30882 kPa | 1021 kg/m3
283.15 K, 30934 kPa | 1021.1 kg/m3
283.15 K, 30951 kPa | 1021.1 kg/m3
283.15 K, 30967 kPa | 1021.1 kg/m3
283.15 K, 30987 kPa | 1021 kg/m3
283.15 K, 31003 kPa | 1021.3 kg/m3
283.15 K, 31020 kPa | 1021.2 kg/m3
283.15 K, 31040 kPa | 1021.1 kg/m3
283.15 K, 31056 kPa | 1021.2 kg/m3
283.15 K, 31073 kPa | 1021.1 kg/m3
283.15 K, 31093 kPa | 1021.1 kg/m3
283.15 K, 31110 kPa | 1021.1 kg/m3
283.15 K, 31127 kPa | 1021.2 kg/m3
283.15 K, 31147 kPa | 1021.2 kg/m3
283.15 K, 31164 kPa | 1021.2 kg/m3
283.15 K, 31180 kPa | 1021.2 kg/m3
283.15 K, 31201 kPa | 1021.3 kg/m3
283.15 K, 31217 kPa | 1021.3 kg/m3
283.15 K, 31234 kPa | 1021.3 kg/m3
283.15 K, 31254 kPa | 1021.3 kg/m3
283.15 K, 31272 kPa | 1021.2 kg/m3
283.15 K, 31289 kPa | 1021.2 kg/m3
283.15 K, 31306 kPa | 1021.2 kg/m3
283.15 K, 31327 kPa | 1021.3 kg/m3
283.15 K, 31343 kPa | 1021.3 kg/m3
283.15 K, 31361 kPa | 1021.3 kg/m3
283.15 K, 31378 kPa | 1021.3 kg/m3
283.15 K, 31398 kPa | 1021.4 kg/m3
283.15 K, 31415 kPa | 1021.3 kg/m3
283.15 K, 31432 kPa | 1021.4 kg/m3
283.15 K, 31453 kPa | 1021.5 kg/m3
283.15 K, 31470 kPa | 1021.4 kg/m3
283.15 K, 31488 kPa | 1021.5 kg/m3
283.15 K, 31509 kPa | 1021.5 kg/m3
283.15 K, 31528 kPa | 1021.5 kg/m3
283.15 K, 31545 kPa | 1021.6 kg/m3
283.15 K, 31562 kPa | 1021.5 kg/m3
283.15 K, 31583 kPa | 1021.3 kg/m3
283.15 K, 31600 kPa | 1021.4 kg/m3
283.15 K, 31618 kPa | 1021.5 kg/m3
283.15 K, 31639 kPa | 1021.5 kg/m3
283.15 K, 31656 kPa | 1021.5 kg/m3
283.15 K, 31674 kPa | 1021.5 kg/m3
283.15 K, 31691 kPa | 1021.5 kg/m3
283.15 K, 31712 kPa | 1021.6 kg/m3
283.15 K, 31730 kPa | 1021.4 kg/m3
283.15 K, 31748 kPa | 1021.6 kg/m3
283.15 K, 31770 kPa | 1021.4 kg/m3
283.15 K, 31787 kPa | 1021.5 kg/m3
283.15 K, 31805 kPa | 1021.5 kg/m3
283.15 K, 31823 kPa | 1021.6 kg/m3
283.15 K, 31845 kPa | 1021.5 kg/m3
283.15 K, 31863 kPa | 1021.6 kg/m3
283.15 K, 31881 kPa | 1021.5 kg/m3
283.15 K, 31902 kPa | 1021.5 kg/m3
283.15 K, 31920 kPa | 1021.4 kg/m3
283.15 K, 31942 kPa | 1021.6 kg/m3
283.15 K, 31960 kPa | 1021.6 kg/m3
283.15 K, 31978 kPa | 1021.7 kg/m3
283.15 K, 31996 kPa | 1021.6 kg/m3
283.15 K, 32019 kPa | 1021.5 kg/m3
283.15 K, 32037 kPa | 1021.7 kg/m3
283.15 K, 32055 kPa | 1021.8 kg/m3
283.15 K, 32077 kPa | 1021.7 kg/m3
283.15 K, 32096 kPa | 1021.6 kg/m3
283.15 K, 32115 kPa | 1021.8 kg/m3
283.15 K, 32133 kPa | 1021.7 kg/m3
283.15 K, 32156 kPa | 1021.6 kg/m3
283.15 K, 32349 kPa | 1021.8 kg/m3
283.15 K, 32369 kPa | 1021.8 kg/m3
283.15 K, 32386 kPa | 1021.7 kg/m3
283.15 K, 32399 kPa | 1021.8 kg/m3
283.15 K, 32420 kPa | 1021.7 kg/m3
283.15 K, 32436 kPa | 1021.9 kg/m3
283.15 K, 32455 kPa | 1022 kg/m3
283.15 K, 32472 kPa | 1022 kg/m3
283.15 K, 32488 kPa | 1021.9 kg/m3
283.15 K, 32506 kPa | 1021.9 kg/m3
283.15 K, 32526 kPa | 1021.9 kg/m3
283.15 K, 32543 kPa | 1022 kg/m3
283.15 K, 32560 kPa | 1021.9 kg/m3
283.15 K, 32575 kPa | 1022 kg/m3
283.15 K, 32587 kPa | 1021.9 kg/m3
283.15 K, 32601 kPa | 1022 kg/m3
283.15 K, 32613 kPa | 1021.9 kg/m3
283.15 K, 32626 kPa | 1021.9 kg/m3
283.15 K, 32639 kPa | 1022 kg/m3
283.15 K, 32654 kPa | 1022 kg/m3
283.15 K, 32665 kPa | 1022 kg/m3
283.15 K, 32672 kPa | 1022 kg/m3
283.15 K, 32680 kPa | 1022 kg/m3
283.15 K, 32688 kPa | 1022.1 kg/m3
283.15 K, 32694 kPa | 1022 kg/m3
283.15 K, 32703 kPa | 1022 kg/m3
283.15 K, 32708 kPa | 1022.1 kg/m3
283.15 K, 32709 kPa | 1022 kg/m3
283.15 K, 32711 kPa | 1021.8 kg/m3
283.15 K, 32715 kPa | 1022 kg/m3
283.15 K, 32718 kPa | 1022 kg/m3
283.15 K, 32720 kPa | 1022 kg/m3 and 1022.1 kg/m3
283.15 K, 32723 kPa | 1021.9 kg/m3 and 1022 kg/m3
283.15 K, 32725 kPa | 1021.9 kg/m3
283.15 K, 32726 kPa | 1022 kg/m3
283.15 K, 32853 kPa | 1022 kg/m3
283.15 K, 32977 kPa | 1022.2 kg/m3
283.15 K, 32981 kPa | 1022.1 kg/m3
283.15 K, 32985 kPa | 1022.1 kg/m3
283.15 K, 32990 kPa | 1022.1 kg/m3
283.15 K, 32992 kPa | 1022.2 kg/m3
283.15 K, 32997 kPa | 1022.1 kg/m3
283.15 K, 33001 kPa | 1022.1 kg/m3
283.15 K, 33005 kPa | 1022.2 kg/m3
283.16 K, 90.5 kPa | 1004.1 kg/m3
283.16 K, 90.7 kPa | 1004.2 kg/m3
283.16 K, 90.8 kPa | 1004.2 kg/m3
283.16 K, 90.9 kPa | 1004.1 kg/m3 and 1004.3 kg/m3
283.16 K, 91.2 kPa | 1004.3 kg/m3 and 1004.2 kg/m3
283.16 K, 91.4 kPa | 1004.1 kg/m3 and 1004.2 kg/m3 and 1004 kg/m3
283.16 K, 91.5 kPa | 1004.1 kg/m3 and 1004.2 kg/m3
283.16 K, 91.7 kPa | 1004.2 kg/m3 and 1004.1 kg/m3
283.16 K, 91.9 kPa | 1004.2 kg/m3
283.16 K, 92.1 kPa | 1004.3 kg/m3
283.16 K, 92.2 kPa | 1004.2 kg/m3 and 1004.1 kg/m3
283.16 K, 92.4 kPa | 1004.2 kg/m3
283.16 K, 92.6 kPa | 1004.2 kg/m3
283.16 K, 92.8 kPa | 1004.1 kg/m3 and 1004.2 kg/m3 and 1004 kg/m3
283.16 K, 93.1 kPa | 1004.2 kg/m3 and 1004.1 kg/m3
283.16 K, 93.3 kPa | 1004.1 kg/m3 and 1004.2 kg/m3
283.16 K, 93.6 kPa | 1004.2 kg/m3
283.16 K, 93.8 kPa | 1004.1 kg/m3 and 1004.2 kg/m3
